# Data: US20210343422A1, “METHODS FOR DYNAMIC MODELING AND CLOSED-LOOP CONTROL OF INFLAMMATION” (Georgia Tech Research Corporation, priority 2018, published 2021)
# Entries after “also recorded” stand apart in the source; their conditions may differ.
# B1: interferon gamma (protein, UniProt P01580 23-155, looked up)
# Interferon gamma: HGTVIESLESLNNYFNSSGIDVEEKSLFLDIWRNWQKDGDMKILQSQIISFYLRLFEVLKDNQAISNNISVIESHLITTFFSNSKAKKDAFMSIAKFEVNNPQVQRQAFNELIRVVHQLLPESSLRKRKRSRC
# notes: interferon gamma (R&D Systems; 485-MI), second orthogonal pro-inflammatory input
# B2: interleukin (IL)-4 (protein, UniProt P07750 21-140, looked up)
# Interleukin-4: HIHGCDKNHLREIIGILNEVTGEGTPCTEMDVPNVLTATKNTTESELVCRASKVLRIFYLKHGKTPCLKKNSSVLMELQRLFRAFRCLDSSISCTMNESKSTSLKDFLESLKSIMQMDYS
# notes: interleukin-4 (PeproTech; 214-14), used to induce an anti-inflammatory, non-naive state
# What was measured:
# [1] = tested on: RAW 264.7 murine immortalized macrophages; experiment: iNOS expression by quantitative Western blot, normalized to α-tubulin; type: cell-based
# Experimental: (§1) All studies in this work were performed using RAW 264.7 murine immortalized macrophages (ATCC TIB-71™). Macrophages were expanded, maintained, and cultured in basal macrophage medium, which is comprised of DMEM (Thermo Fisher Scientific; Ser. No. 12/430,062), 10% FBS (Thermo Fisher Scientific; 26140079), and 1% antibiotic/antimycotic (Sigma-Aldrich; A5955).
# (§2) Raw 264.7 macrophages were cultured to 70% confluence before conditioning began. Cells were conditioned by addition of medium with lipopolysaccharide (LPS; Sigma-Aldrich; L2880), interferon gamma (IFN-γ; R&D Systems; 485-MI), or interleukin (IL)-4 (PeproTech; 214-14) as indicated.
# For Western blot experiments, cells were cultured in 6-well plates then lysed using RIPA buffer with PMSF (Sigma-Aldrich), and cOmplete Mini (Sigma-Aldrich). Membranes were probed for α-tubulin (Sigma-Aldrich, Cat. No. T6074; 1:4000) and iNOS (1:1000). Membranes were imaged on a LiCor Odyssey CLx machine and quantified in ImageStudio Lite. iNOS band intensity was normalized to α-tubulin intensity to yield iNOS expression.
# (§3) ICC and Western blot data were aggregated and iNOS expression for each independent experiment was normalized to the positive control with Raw264.7 cells treated with 1 μg/mL LPS for 24 hours (dynoDataLoad.m). iNOS dynamics plots were generated using the Gramm package for MATlAB. Data at sampled time points (0, 24 48, and 72 hours) were expressed as mean±SEM for separated data (N=38 for LPS single input experiments; N=8 for LPS repeated input experiments; N=8 for LPS cycled input experiments; N=32 for IFN-γ single input experiments; N=16 for IFN-γ repeated input experiments; N=16 for IFN-γ cycled input experiments). To generate interpolation curves data were smoothed using the Savitzky-Golay (sgolay) option in the curve fitting toolbox. Shaded band on curve represents root mean squared (RMS) cross validation error on smoothed data (macrophageDyn_figGenv3.m).
# [2] = tested on: RAW 264.7 murine immortalized macrophages; experiment: iNOS expression by immunocytochemistry (ICC), normalized to nuclei count; type: cell-based; details: for sensitivity of iNOS response, IFN-γ versus TNF-α as second pro-inflammatory stimulus: FIG. 9
# Experimental: as §1, §2
# (§4) Raw 264.7 macrophages were conditioned with LPS or IFN-γ alone to quantify individual stimulus dynamic response, with LPS or IFN-γ sequentially to recover iNOS expression via orthogonal input, or with LPS […] to quantify supra-additivity and model predictive control strategy response. Pre-treatment, 24 hours of IL-4 prior to addition of LPS or IFN-γ, was used to induce an anti-inflammatory, non-nave state for experiments involving hysteretic effects.
# For immunocytochemistry (ICC) experiments, macrophages were cultured in 96-well microplates. Macrophages were fixed in 4% PFA solution for 15 minutes and blocked with 5% BSA+3% goat serum in PBS for one hour. Cells were stained with α-iNOS antibody (Cell Signaling Technology; Cat. No. 13120; 1:400) and DAPI for normalization to nuclei count. Cells were imaged at 10× magnification (Zeiss Observer Z1). Image fluorescence was thresholded and total fluorescence above the threshold was normalized to nuclei number.
# as §3
# Raw264.7 cells = experiment: Arg1 expression for M2 polarization validation; type: cell-based, murine; details: IL-4 pre-conditioning, FIG. 11
# Experimental: as §4
# To model Raw264.7 cells starting in a non-nave state, the inventors pre-conditioned macrophages with IL-4 for 24 hours prior to pro-inflammatory stimulation. […] Reference source not found. For each LPS concentration, iNOS expression for non-M2 polarized LPS-only treated cells were divided by iNOS expression values from cell treated with an array of IL-4 concentrations for 24 hours followed by 24 hours of LPS. The matrix of LPS and IL-4 concentrations was interpolated using 3rd order linear least squares, which provided the inverse of the continuous input concentration-dependent attenuation factor γ. […] The M2 driven attenuation of M1 response reflects the systemic immunosuppression that poses a major risk to post-traumatic or surgical injury patients.
# [3] = physiologically relevant concentration range
molecule,measurement,setting,value
lipopolysaccharide [LPS],time of peak in iNOS expression,[1]; single administration of 1 μg/ml LPS,24 h
same,decay of iNOS expression to baseline after the peak,"[1]; single administration of 1 μg/ml LPS, LPS not removed",48 h
same,duration of iNOS level,"[2]; LQG controller input: 24 hours of 20 ng/ml, then 48 hours at 1 μg/ml LPS","sustained this iNOS level through 48 hours, but not through 72 hours"
same,"iNOS expression level, of the reference","[2]; LQG controller input: 24 hours of 20 ng/ml, then 48 hours at 1 μg/ml LPS, read at 24 hours",60%
same,"iNOS expression, peak, of normalized max iNOS","[2]; PI controller input: 40 ng/ml LPS for 24 hours, then 1 μg/ml until 72 hours, read at 24 hours, max = 24 hour level given 1 μg/ml LPS",approximately 70%
same,"iNOS expression, of max","[2]; PI controller input: 40 ng/ml LPS for 24 hours, then 1 μg/ml, read at 48 hours",50 % max
same,iNOS response above the high LPS concentration,[2]; above 1 μg/ml LPS,response tapered off
same,iNOS expression at 72 hours,[2]; combined PI and LQG three-step LPS input strategy,did not keep activation high at 72 hours
same,iNOS expression dynamics on repeated or cycled LPS stimulation,"[2]; multiple administrations of LPS, or 24 hours in control media before LPS re-stimulation",did not alter iNOS expression dynamics; also recorded: not modulated
same,LPS dose-to-iNOS response relationship,"[2]; physiologically relevant concentration range, up to 1 μg/ml LPS",monotonic
TNF-α,"sensitivity of iNOS response, IFN-γ versus TNF-α as second pro-inflammatory stimulus",[2]; [3],more sensitive to IFN-γ
B1,temporal iNOS response to IFN-γ alone,"[2]; 100 ng/ml IFN-γ alone, FIG. 10",not sustained
same,iNOS levels after prior LPS input,"[2]; 24 hrs of LPS, then IFN-γ delayed or immediately after, FIGS. 4B-4C",robustly increased iNOS levels
same,effect on LPS-induced iNOS expression (supra-additivity),"[2]; IFN-γ with LPS, concomitantly or in series, through 72 hours",amplifies LPS-induced iNOS expression
same,"iNOS expression in IL-4 pre-treated cells, IFN-γ with LPS versus LPS alone","[2]; lower LPS and higher IL-4 concentrations, FIG. 5B-5C",greater iNOS expression was observed
same,"sensitivity of iNOS response, IFN-γ versus TNF-α as second pro-inflammatory stimulus",[2]; [3],more sensitive to IFN-γ
B2,iNOS protein expression,"[1]; IL-4 treatment, FIG. 8, n=2",not expressed
same,Arg1 expression,Raw264.7 cells,increased expression of Arg1
same,iNOS expression after IL-4 pre-conditioning,"[2]; IL-4 for 24 hours, then 24 hr of LPS",attenuated expression of iNOS
